Source: publication PMC12400753 (Respiratory Research, 2025)

How the values were obtained:
[1] = system: primary human lung fibroblasts; test: LPA-induced chemotaxis assay; type: cell-based; conditions: 1 µM LPA chemoattractant; 6 h preincubation; read-out: IC50 inhibition of fibroblast chemotaxis
Procedure: Chemotaxis assay: Primary human lung fibroblasts were obtained from ATCC (Cat # PCS-201-020) and cultured in fibroblast media as per ATCC directions. Fibroblasts were serum starved overnight in basal fibroblast media. Cells were then lifted using CellStripper, centrifuged at 500 x g for 10 min, then resuspended in basal media. […] The receiving chamber contained 1 µM LPA. Chemotaxis was quantified as per Cell Biolabs, Inc instructions on a Flexstation 3 (Molecular Devices).

[2] = system: primary human alveolar macrophages; test: LPS-induced IL-1β release; type: cell-based
Procedure: Human macrophages were cultured in Human Alveolar Macrophage Media per manufacturer’s instructions. […] Cells were then co-stimulated with 500 ng/mL LPS for 4 h. Plates were spun down and supernatant collected for analysis using a human IL-1β ELISA kit per manufacturer’s directions.

[3] = system: bleomycin-induced macrophage activation; test: Intratracheal bleomycin, therapeutic dosing: BAL macrophage size and IL-1β; type: in vivo, mouse; conditions: 3 mg/kg oral once a day from day 3 after bleomycin
Procedure: To further support our ex vivo macrophage findings, we used a therapeutic paradigm where mice were challenged in vivo with intratracheal instillation of bleomycin. […] The fluid was centrifuged and supernatant and cell fractions analyzed.
Mice were dosed until day 14 at which point BAL fluid was collected. BAL was centrifuged and cells were transferred to culture plates and incubated overnight at 37 °C. Plates were spun down and supernatant and cell pellet analysed separately. Supernatant was analyzed for IL-1β as described for mouse above. The cell pellet for each condition was plated at 3 × 10^3 cells/well in black clear bottom 96-well plates. After settling, cells were fixed in formalin and immunostained against CD68 and detected with a donkey anti-rat Alexa 488 conjugated antibody. Image acquisition and analysis was performed using a Nikon A1R confocal microscope and NIS Elements software.

[4] = system: fresh human PCLS from donors with pulmonary fibrosis; test: Secreted biomarkers in fresh PCLS from pulmonary fibrosis donors; type: cell-based; conditions: PIPE-791 0.03, 0.3, 3 µM; 48 h
Excerpt: Translationally, biomarker-based strategies for assessing aberrant extracellular matrix deposition and remodeling in the context of disease pathogenesis and compound efficacy have become increasingly relevant. For the PCLS gene expression studies, slices were preserved through slow cryogenic freezing of tissue. While this affords experimental flexibility, some physiological relevance is lost over the course of cryostorage and recovery (e.g., immune cell loss). To circumvent this, fresh PCLS from two donors with pulmonary fibrosis were generated and immediately placed into culture. For this experiment, well-established, secreted fibrotic markers that encompass fibrogenesis and tissue remodeling were measured: C3M (a marker of collagen III degradation and an indicant of ECM remodeling and tissue turnover), Pro-C3 (a neo-epitope fragment of collagen III and a marker of active fibrogenesis and fibrosis progression), and Pro-C6 (a neoepitope fragment of COLVIA3 and a marker of remodeling and wound healing). […] Media was then removed and analyzed for biomarker concentration.
PCLS cultures for secreted biomarker analysis were performed at Fraunhofer ITEM (Hanover, Germany) using tissue from pathologist qualified, pulmonary fibrosis patients. Tissue from individual donors and 2 lung regions were collected in accordance with policies approved by the Hanover Medical School ethics committee. Only fibrotic tissue was used for experiments. Region 1 consisted of subpleural tissue and Region 2 of central tissue. For each, lung lobes were filled with low-melting agarose then sectioned at 300 μm on a Krumdiek tissue slicer as described in Hesse et al., 2022. Slices were incubated in DMEM containing penicillin and streptomycin, two slices per region were used. […] Supernatant was collected and shipped to Nordic Bioscience (Herlev, Denmark) for C3M, Pro-C6 and Pro-C3 analysis. Donor information can be found in Additional File 1.

[5] = system: bleomycin-induced lung fibrosis; test: Systemic (subcutaneous) bleomycin mouse model; type: in vivo; conditions: 3 mg/kg oral once a day, therapeutic
Procedure: Mice were injected subcutaneously with bleomycin (0.1 units/day), on a schedule of 5 days on/2 days off to induce fibrosis. […] Dosing was maintained until study end, at which point lung tissues were collected. The right lobe was snap frozen and processed for collagen analysis for hydroxyproline; the left lobe was sectioned and stained with Masson’s trichrome stain for histological assessment of tissue collagen. This study was conducted by Inotiv (West Lafayette, IN). Forty-four female 9 week old C57Bl/6 mice (Jackson Labs) were provided standard chow (Envigo, Cat #: 8940), housed under standard conditions, and allowed to acclimate for > 3 days prior to enrollment. Prior to start, mice were weighed and placed into balanced enrollment groups. Four days prior to start, mice were anesthetized, dorsal fur shaved and removed with depilatory agent, and two circles (~ 1.5 cm diameter) heat-branded on their dorsal abdomen. Fur was removed as needed for the balance of the study to ensure consistent location of s.c. injections. Beginning on day 0 and through day 26, mice were anesthetized with isoflurane and administered 0.9% NaCl or bleomycin injections (100 µl/injection, s.c.) into each of the circles (2 injections/mouse/d) on a 5 day on/2 day off paradigm. Mice were administered 0.9% NaCl (vehicle) or bleomycin (0.1 U) with bleomycin doses split evenly between the two circles (i.e., 0.05 U/circle). […] Weight measures and health observations were made daily. On day 27, mice were dosed to enable trough blood/plasma collection on day 28, which was collected via retro-orbital approach under isoflurane anesthesia. Following blood collection, mice were administered vehicle or compound on a timetable as appropriate to enable a peak blood collection 2 h postdose. At the time of sacrifice, mice were anesthetized with pentobarbital, a tracheotomy performed and interfaced with a positive pressure ventilator providing 100% O2. The mouse’s chest was then opened, and a needle interfaced with an infusion pump introduced to the right ventricle. […] The lungs were then harvested, immediately immersed in ice-cold 0.9% NaCl, gross dissected and subjected to morphological analyses. Tissue samples will be processed for biochemical and/or histological analyses as described below. Masson’s Trichrome Blue stained slides were subjected to histological analyses using color segmentation analysis for lung fibrosis. Frozen lung samples underwent hydroxyproline analysis as described below. Lung tissue processing – following exsanguination and flushing of the pulmonary circulation to clear blood, the lungs were removed, placed in ice-cold 0.9% NaCl and processed on wet ice. Extraneous tissue was removed and whole lung weight recorded. […]

COc1ccc(NC(=O)N(c2ccccc2C(C)C)C2CCC(C(=O)O)CC2)c(OC(F)F)n1 (stereo not shown) [PIPE-791]
IC50 [1]: 1.5 nM | LPS-induced IL-1β in culture media ([2]; 500 ng/mL LPS 4 h, LPS alone 4.3-fold increase): inhibited to baseline levels | IL-1β in culture media, compound alone ([2]; no LPS): No increase was observed | reduction of IL-1β in BAL supernatant [3]: 69.2% | reduction of macrophage cell size (CD68 area) ([3]; BAL cells): 56% | secreted C3M [4]: reduction in C3M secretion with PIPE-791 at all concentrations tested, with significance observed at 0.03 and 3 µM | secreted Pro-C3 [4]: did not observe a significant decrease | secreted Pro-C6 [4]: significant reduction in secreted Pro-C6 at all concentrations | reduction in lung hydroxyproline compared to bleomycin/vehicle [5]: 40% | tissue collagen fraction (TCF), trichrome ([5]; p = 0.0017): nearly full reduction
